The record followed here is patent KR20210056931A, “피리메타민을 유효성분으로 포함하는 면역 관련 질환의 치료 또는 예방용 약학 조성물” (priority 2019, dated 2021).

The subject of experiment [1] is TNF-α. Nature of the experiment: TNF-α expression inhibition in Raw264.7, comparison with DMARDs, Experiment 2-1. As to conditions: 6 h pretreatment, LPS 10 ng/mL, MTX 344 nM, HCQ 610 nM, PYR 50 ng/mL, CsA 391 ng/mL, AZA 25 ng/mL, SFZ 750 ng/mL. The class given is cell-based.
In experiment [2] the test system is TNF-α. Nature of the experiment: TNF-α expression inhibition in Raw264.7, comparison with hydroxychloroquine and proguanil, Experiment 2-3. As to conditions: PY 0.2 uM, HCQ 0.61 uM, PG 5 uM; LPS 10 ng/mL, 24 h co-treatment. The experiment is classed as cell-based.
In the next experiment the test system is STAT3. As to the kind of experiment: STAT3 activity (nuclear translocation) in Raw264.7, Experiment 3. The conditions noted are these: 50 ng/ml, 2 h pretreatment; LPS 100 ng/ml 16 h; Fig. 6. The class given is cell-based.
The test system of experiment [3] is rheumatoid arthritis model, DBA-1J Mice [류마티스 관절염 모델]. As to the kind of experiment: Arthritis score in rheumatoid arthritis animal model, dose regimen study, Experiment 6. The class given is in vivo, mouse. As to conditions: HCQ 80 mg/kg/day QD PO, PG 25 mg/kg/day QD PO; for Arthritis score: MTX 2 mg/kg/2day PO, TFC 10 mg/kg/day BID PO (G3-G6).
The test system is the same in experiment [4]. Nature of the experiment: Paw edema in rheumatoid arthritis animal model, dose regimen study, Experiment 6. The class given is in vivo, mouse. As to conditions: Day 14, MTX 2 mg/kg/2day PO, HCQ 80 mg/kg/day QD PO, PG 25 mg/kg/day QD PO, TFC 10 mg/kg/day BID PO (G3-G6).
For experiment [5] the test system is unchanged. Nature of the experiment: Histopathological examination in rheumatoid arthritis animal model, dose regimen study, Experiment 6. The experiment is classed as in vivo, mouse. The conditions noted are these: Day 14; MTX 2 mg/kg/2day PO, HCQ 80 mg/kg/day QD PO, PG 25 mg/kg/day QD PO, TFC 10 mg/kg/day BID PO (G3-G6).
Experiment [6] deals with TNF-α. Nature of the experiment: Plasma TNF-α (ELISA), Experiment 6-5. The class given is in vivo, mouse.

“And” between values parts separate entries of the source, which are not always exact repeats. Identical values can stand only once.

As to `CCN(CCO)CCCC(C)Nc1ccnc2cc(Cl)ccc12` (stereo not shown) [히드록시클로로퀸, Hydroxychloroquine], the TNF-α expression was determined as 339.5 pg/mL in the experiment with TNF-α [1] (2hr), 3564.6 pg/mL in the experiment on TNF-α [1] (24hr) and 762.2 with TNF-α [2]. The STAT3 nuclear translocation result with STAT3 is reported as “LPS 16 시간 자극에 의한 STAT3의 핵이동을 억제함”. Moreover, the Arthritis score in experiment [3] (Day 0) is given as 2.5±1.2 total score; in experiment [3] (Day 2), 4.0±0.6 total score; in experiment [3] (Day 5), 6.5±0.8 total score; in experiment [3] (Day 7) it was 9.3±2.0 total score; in experiment [3] (Day 9) it was 10.3±2.1 total score; in experiment [3] (Day 12), 11.3±2.5 total score. In experiment [3] (Day 14), the Arthritis score is reported as 12.0±2.8 total score. The “Arthritis score (in words)” value in experiment [3] (TFC 10 mg/kg/day BID PO) is given as “관절염 지수가 개선되지 않았다”. Moreover, in experiment [4], the “Paw edema, HL, mean” value was 0.17 mL. In experiment [4], the “Paw edema, HR, mean” value amounted to 0.16 mL. The “Paw edema, HL, individual animal” value in experiment [4] (listed as HCQ) was 0.17 mL and 0.13 mL and 0.19 mL and 0.15 mL and 0.16 mL. For the same compound, in experiment [4] (listed as HCQ), the “Paw edema, HR, individual animal” value was 0.19 mL and 0.15 mL and 0.13 mL and 0.16 mL and 0.18 mL and 0.14 mL. In addition, in experiment [5], the Bone destruction is reported as 2.7±0.5. This compound also had a Cartilage damage in experiment [5] of 2.0±1.1. The “Histopathological examination, total” value in experiment [5] is reported as 7.7±1.5. In experiment [5], this compound returned a Synovium proliferation of 3.0±0.0. The “Plasma TNF-α” value with TNF-α [6] (Day 14, MTX 2 mg/kg/2day PO, HCQ 80 mg/kg/day QD PO, PG 25 mg/kg/day QD PO, TFC 10 mg/kg/day BID PO (G3-G6)) came out at 839.5 pg/mL. The “Plasma TNF-α (in words)” value in the experiment with TNF-α [6] (HCQ, PG, TFC groups) is recorded as “혈장 TNF-α가 감소하지 않은”.
